Earlier results as cited in patent publication US6569404B1, “Phase shift colloids as ultrasound contrast agents” (priority 1993, dated 2003).
Where two headings read alike, the source gives them in different places.

Settings: cited from earlier work
[1] = boiling point under standard pressure conditions, chemical list arranged by total atoms
[2] = Chemical List of low boiling liquids, Example 45
[3] = dispersed phase of emulsions of Example 18

Question: For `CC(C(F)(F)F)C(F)(F)F` [1,1,1,3,3,3-hexafluoro-2-methyl-propane], which “Boiling Point” value [1] is on record?
Answer: 21.5 degrees Celcius

Question: Which “Boiling Point” value [1] does the source give for `FCCC(F)(F)F` [1,1,1,3-tetrafluoro-propane] here?
Answer: 29.4 degrees Celcius

Question: For `CCC(F)(F)F` [1,1,1-trifluoro propane], which “Boiling Point” value [1] is on record?
Answer: −13 degrees Celcius

Question: With `COCC(F)(F)F` [1,1,1-trifluoro-2-methoxy-ethane] as the compound, how does the “Boiling Point” value [1] read?
Answer: 31 degrees Celcius

Question: Which “Boiling Point” value [1] does the source give for `CCCC(F)(F)F` [1,1,1-trifluoro-butane] here?
Answer: 16.74 degrees Celcius

Question: With `CCC=C(F)F` [1,1-difluoro-but-1-ene] as the compound, how does the “Boiling Point” value [1] read?
Answer: 3.71 degrees Celcius

Question: Which “Boiling Point” value [1] does the source give for `C=CC=C(F)F` [1,1-difluoro-buta-1,3-diene] here?
Answer: 3.5 degrees Celcius

Question: For `Cc1cc2ccccc2c2cc3ccccc3cc12` [1,2-Benzanthracene, 4-methyl], which “Boiling Point” value [2] is on record?
Answer: 1.0 degrees Celcius

Question: Which “Boiling Point” value [2] does the source give for `C=C=CC` [1,2-Butadiene] here?
Answer: 10.8 degrees Celcius

Question: Which “Boiling Point” value [1] does the source give for `FC(F)(Cl)C(F)(F)Cl` [1,2-dichloro-tetrafluoro-ethane] here?
Answer: 3.5 degrees Celcius

Question: With `FC(F)=C(F)C(F)=C(F)F` [1,3-Butadiene, hexafluoro] as the compound, how does the “Boiling Point” value [2] read?
Answer: 6.0 degrees Celcius

Question: Which “Boiling Point” value [2] does the source give for `C=CC=C` [1,3-Butadiene] here?
Answer: −4.4 degrees Celcius

Question: Which “Boiling Point” value [2] does the source give for `C#CCCC#CC` [1,5-Heptadiyne] here?
Answer: 26.0 degrees Celcius

Question: Which “Boiling Point” value [2] does the source give for `FC(F)=C(F)C(F)(F)C(F)(F)F` [1-Butene, perfluoro] here?
Answer: 4.8 degrees Celcius

Question: Which “Boiling Point” value [3] does the source give for `FC(F)(F)C(F)(F)C(F)(F)C(F)(F)C(F)(F)C(F)(F)C(F)(F)C(F)(F)I` [1-Iodoperfluorooctane, reference compound] here?
Answer: 160 °C

Question: Which “Boiling Point” value [2] does the source give for `C=CC#CCCCCC` [1-Nonene-3-yne] here?
Answer: 27.0 degrees Celcius

Question: With `FC(F)=C(F)C(F)(F)C(F)(F)C(F)(F)F` [1-Pentene, perfluoro] as the compound, how does the “Boiling Point” value [2] read?
Answer: 29.0 degrees Celcius

Question: Which “Boiling Point” value [1] does the source give for `CCC(C)(F)F` [2,2 difluoro-butane] here?
Answer: 30.92 degrees Celcius

Question: Which “Boiling Point” value [2] does the source give for `C/C=C/C` [2-Butene (trans)] here?
Answer: 0.9 degrees Celcius

Question: For `FC(=C(F)C(F)(F)F)C(F)(F)F` [2-Butene, octafluoro], which “Boiling Point” value [2] is on record?
Answer: 1.2 degrees Celcius

Question: Which “Boiling Point” value [2] does the source give for `FC(=C(F)C(F)(F)F)C(F)(F)F` [2-Butene, perfluoro] here?
Answer: 0.0 degrees Celcius

Question: Which “Boiling Point” value [2] does the source give for `FC(F)(F)C#CC(F)(F)F` [2-Butyne, perfluoro] here?
Answer: −24.6 degrees Celcius

Question: With `C=C(C)C(F)F` [3,3 difluoro-2-methyl-propene] as the compound, how does the “Boiling Point” value [1] read?
Answer: 28.1 degrees Celcius

Question: With `C=C(C)C(F)(F)F` [3,3,3-trifluoro-2-methyl-propene] as the compound, how does the “Boiling Point” value [1] read?
Answer: 6 degrees Celcius

Question: For `CC[C@H](C)CF` [(−)(S)-1-fluoro-2-methyl-butane], which “Boiling Point” value [1] is on record?
Answer: 14.1 degrees Celcius

Question: Which “Boiling Point” value [2] does the source give for `O=C(C(F)(F)F)C(F)(F)F` [Acetone, hexafluoro] here?
Answer: −28.0 degrees Celcius

Question: Which “Boiling Point” value [2] does the source give for `CC(=O)F` [Acetyl fluoride] here?
Answer: 20.8 degrees Celcius

Question: Which “Boiling Point” value [2] does the source give for `C#CC(C)C` [Acetylene, isopropyl] here?
Answer: 0.0 degrees Celcius

Question: With `FC(F)=C=C(F)F` [Allene, tetrafluoro] as the compound, how does the “Boiling Point” value [2] read?
Answer: −38.0 degrees Celcius

Question: With `C=C=C` [Allene] as the compound, how does the “Boiling Point” value [2] read?
Answer: −34.5 degrees Celcius

Question: With `[Ar]` [Argon] as the compound, how does the “Boiling Point” value [2] read?
Answer: −189.4 degrees Celcius

Question: For `FC(F)(F)N=NC(F)(F)F` [Azomethane, hexafluoro], which “Boiling Point” value [2] is on record?
Answer: −31.6 degrees Celcius

Question: For `CN=NC` [Azomethane], which “Boiling Point” value [2] is on record?
Answer: 1.5 degrees Celcius

Question: Which “Boiling Point” value [2] does the source give for `O=C(Cl)c1c(Cl)c(Cl)c(Cl)c(Cl)c1Cl` [Benzoyl chloride, pentachloro] here?
Answer: 5.0 degrees Celcius

Question: With `CCCCON=O` [Butyl nitrite] as the compound, how does the “Boiling Point” value [2] read?
Answer: −77.8 degrees Celcius

Question: Which “Boiling Point” value [2] does the source give for `O=C=O` [Carbon dioxide] here?
Answer: −78.6 degrees Celcius

Question: For `O=C=C=C=O` [Carbon suboxide], which “Boiling Point” value [2] is on record?
Answer: 6.8 degrees Celcius

Question: For `O=C=S` [Carbonyl sulfide], which “Boiling Point” value [2] is on record?
Answer: −50.0 degrees Celcius

Question: For `CC=CC#N` [Crotononitrile], which “Boiling Point” value [2] is on record?
Answer: 12.0 degrees Celcius

Question: Which “Boiling Point” value [2] does the source give for `FC1=C(F)C(F)(F)C1(F)F` [Cyclobutene, perfluoro] here?
Answer: 3.0 degrees Celcius

Question: Which “Boiling Point” value [2] does the source give for `CCC1CC1` [Cyclopropane, ethyl] here?
Answer: 34.5 degrees Celcius

Question: Which “Boiling Point” value [2] does the source give for `CC1CC1` [Cyclopropane, methyl] here?
Answer: 4.0 degrees Celcius

Question: With `C1CC1` [Cyclopropane] as the compound, how does the “Boiling Point” value [2] read?
Answer: −32.7 degrees Celcius

Question: What does the source list for `FC(F)(F)C(F)(F)C(F)(F)C(F)(F)F` [Decaflurobutane]?
Answer: Boiling Point [2]: 4.0 degrees Celcius; Boiling Point [3]: −5.8 °C

Question: Which “Boiling Point” value [2] does the source give for `C#CC#C` [Diacetylene] here?
Answer: 22.0 degrees Celcius

Question: With `FC(F)(F)SSC(F)(F)F` [Dimethyl disulfide, hexafluoro] as the compound, how does the “Boiling Point” value [2] read?
Answer: 34.6 degrees Celcius

Question: Which “Boiling Point” value [2] does the source give for `CCN(C)C` [Dimethyl ethyl amine] here?
Answer: 36.0 degrees Celcius

Question: With `COC.Cl` [Dimethyloxonium chloride] as the compound, how does the “Boiling Point” value [2] read?
Answer: −2.0 degrees Celcius

Question: With `FC(F)OCC(F)(F)F` [Ether, difluoromethyl 2,2,2-trifluoroethyl] as the compound, how does the “Boiling Point” value [2] read?
Answer: 28.0 degrees Celcius

Question: Which “Boiling Point” value [2] does the source give for `FN(F)C(F)(F)C(F)(F)F` [Ethyl amine, perfluoro] here?
Answer: −35.0 degrees Celcius

Question: Which “Boiling Point” value [2] does the source give for `CCN` [Ethyl amine] here?
Answer: 16.6 degrees Celcius

Question: Which “Boiling Point” value [2] does the source give for `CCNC` [Ethyl methyl amine] here?
Answer: 36.7 degrees Celcius

Question: Which “Boiling Point” value [2] does the source give for `CCOC` [Ethyl methyl ether] here?
Answer: 10.8 degrees Celcius

Question: Which “Boiling Point” value [2] does the source give for `CCON=O` [Ethyl nitrite] here?
Answer: 16.0 degrees Celcius

Question: With `C=COCC` [Ethyl vinyl ether] as the compound, how does the “Boiling Point” value [2] read?
Answer: 35.0 degrees Celcius

Question: For `C=CCC` [Example 1-Butene, 1-Butene], which “Boiling Point” value [2] is on record?
Answer: −6.3 degrees Celcius

Question: With `C#CCC` [Example 1-Butyne, 1-Butyne] as the compound, how does the “Boiling Point” value [2] read?
Answer: 8.1 degrees Celcius

Question: Which “Boiling Point” value [2] does the source give for `C=CCCC` [Example 1-Pentene, 1-Pentene] here?
Answer: 30.0 degrees Celcius

Question: For `CC#CC` [Example 2-Butyne, 2-Butyne], which “Boiling Point” value [2] is on record?
Answer: 27.0 degrees Celcius

Question: Which “Boiling Point” value [1] does the source give for `CC(C)C(F)(F)F` [Example 2-Trifluoromethyl-propane, 2-Trifluoromethyl-propane] here?
Answer: 13 degrees Celcius

Question: For `COC=O` [Formic acid, methyl ester], which “Boiling Point” value [2] is on record?
Answer: 31.5 degrees Celcius

Question: With `C=C1C=CC=C1` [Fulvene] as the compound, how does the “Boiling Point” value [2] read?
Answer: 7.0 degrees Celcius

Question: For `C=C(C)C` [Isobutylene], which “Boiling Point” value [2] is on record?
Answer: −6.9 degrees Celcius

Question: Which “Boiling Point” value [2] does the source give for `C=CC(=C)C` [Isoprene] here?
Answer: 34.0 degrees Celcius

Question: With `[Kr]` [Krypton] as the compound, how does the “Boiling Point” value [2] read?
Answer: −153.0 degrees Celcius

Question: With `O=S(=O)(Cl)C(F)(F)F` [Methane sulfonyl chloride, trifluoro] as the compound, how does the “Boiling Point” value [2] read?
Answer: 31.6 degrees Celcius

Question: Which “Boiling Point” value [2] does the source give for `O=NC(F)(F)Br` [Methane, bromo difluoro nitroso] here?
Answer: −12.0 degrees Celcius

Question: For `FCBr` [Methane, bromo fluoro], which “Boiling Point” value [2] is on record?
Answer: 19.0 degrees Celcius

Question: With `FC(Cl)Br` (centres unmarked) [Methane, bromo-chloro-fluoro] as the compound, how does the “Boiling Point” value [2] read?
Answer: 36.0 degrees Celcius

Question: Which “Boiling Point” value [2] does the source give for `FC(F)(F)Br` [Methane, bromo-trifluoro] here?
Answer: −57.9 degrees Celcius

Question: For `O=[N+]([O-])C(F)(F)Cl` [Methane, chloro difluoro nitro], which “Boiling Point” value [2] is on record?
Answer: 25.0 degrees Celcius

Question: For `FCCl` [Methane, chloro fluoro], which “Boiling Point” value [2] is on record?
Answer: −9.1 degrees Celcius

Question: With `FC(F)(F)Cl` [Methane, chloro trifluoro] as the compound, how does the “Boiling Point” value [2] read?
Answer: −81.4 degrees Celcius

Question: Which “Boiling Point” value [2] does the source give for `FC(F)Cl` [Methane, chloro-difluoro] here?
Answer: −40.8 degrees Celcius

Question: For `FC(F)(Br)Br` [Methane, dibromo difluoro], which “Boiling Point” value [2] is on record?
Answer: 24.5 degrees Celcius

Question: Which “Boiling Point” value [2] does the source give for `FC(F)(Cl)Cl` [Methane, dichloro difluoro] here?
Answer: −29.8 degrees Celcius

Question: Which “Boiling Point” value [2] does the source give for `FC(Cl)Cl` [Methane, dichloro-fluoro] here?
Answer: 9.0 degrees Celcius

Question: Which “Boiling Point” value [2] does the source give for `ClCCl` [Methane, dichloro] here?
Answer: 40.0 degrees Celcius

Question: With `FCF` [Methane, difluoro] as the compound, how does the “Boiling Point” value [2] read?
Answer: −51.6 degrees Celcius

Question: For `[SiH3]C[SiH3]` [Methane, disilano], which “Boiling Point” value [2] is on record?
Answer: 14.7 degrees Celcius

Question: With `CI` [Methane, iodo-] as the compound, how does the “Boiling Point” value [2] read?
Answer: 42.4 degrees Celcius

Question: Which “Boiling Point” value [2] does the source give for `FC(F)(F)I` [Methane, iodo-trifluoro] here?
Answer: −22.5 degrees Celcius

Question: For `O=[N+]([O-])C(F)(F)F` [Methane, nitro-trifluoro], which “Boiling Point” value [2] is on record?
Answer: −31.1 degrees Celcius

Question: For `O=NC(F)(F)F` [Methane, nitroso-trifluoro], which “Boiling Point” value [2] is on record?
Answer: −84.0 degrees Celcius

Question: Which “Boiling Point” value [2] does the source give for `FC(F)(F)F` [Methane, tetrafluoro] here?
Answer: −129.0 degrees Celcius

Question: For `FC(Cl)(Cl)Cl` [Methane, trichlorofluoro], which “Boiling Point” value [2] is on record?
Answer: 23.7 degrees Celcius

Question: With `C` [Methane] as the compound, how does the “Boiling Point” value [2] read?
Answer: −164.0 degrees Celcius

Question: Which “Boiling Point” value [2] does the source give for `FC(F)(F)SCl` [Methanesulfenylchloride, trifluoro] here?
Answer: −0.7 degrees Celcius

Question: Which “Boiling Point” value [2] does the source give for `CS` [Methanethiol] here?
Answer: 62 degrees Celcius

Question: With `COC` [Methyl ether] as the compound, how does the “Boiling Point” value [2] read?
Answer: −25.0 degrees Celcius

Question: For `COC(C)C` [Methyl isopropyl ether], which “Boiling Point” value [2] is on record?
Answer: 32.5 degrees Celcius
